Experimental data reported in the supplement of paper PMC10307832.

Key:
Test in all cases: relative viability (nuclei count vs DMSO), 5 days (fraction); higher = more cells survive
[1] = compound: CCC1=CN=CN=C1N2CCN(CC2)CC3=NC4=C(N3)C=C(C=C4)C(F)(F)F + CC(=O)c1c(C)c2cnc(Nc3ccc(N4CCNCC4)cn3)nc2n(C2CCCC2)c1=O [Palbociclib] (partner 0.5 µM)
In short: (§1)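 Relative viability was taken as the ratio of nuclei in treated wells to nuclei in vehicle wells. Lung cancer cell lines in 1536-well plates received compounds by pin tool one day after seeding, either one drug alone or a fixed anchor-drug dose plus five library-drug doses (not always all listed) in √10 steps. Nuclei were counted on 4× images after 5 days of treatment, and values are medians of duplicate plates.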

[2] = compound: CCC1=CN=CN=C1N2CCN(CC2)CC3=NC4=C(N3)C=C(C=C4)C(F)(F)F + CS(=O)(=O)N1CCN(Cc2cc3nc(-c4cccc5[nH]ncc45)nc(N4CCOCC4)c3s2)CC1 [Pictilisib] (partner 1 µM)
In short: as §1

Mirin + Navitoclax = compound: N=C1NC(=O)/C(=C/c2ccc(O)cc2)S1 [Mirin] + CC1(C)CCC(c2ccc(Cl)cc2)=C(CN2CCN(c3ccc(C(=O)NS(=O)(=O)c4ccc(N[C@H](CCN5CCOCC5)CSc5ccccc5)c(S(=O)(=O)C(F)(F)F)c4)cc3)CC2)C1 [Navitoclax] (partner 0.5 µM)
In short: as §1

Mirin + Linsitinib = compound: N=C1NC(=O)/C(=C/c2ccc(O)cc2)S1 [Mirin] + C[C@]1(O)C[C@@H](c2nc(-c3ccc4ccc(-c5ccccc5)nc4c3)c3c(N)nccn32)C1 [Linsitinib] (partner 1 µM)
In short: as §1

Row | Cell Line | relative viability ([1]; first compound 0.04 µM) | relative viability ([1]; first compound 0.1265 µM) | relative viability ([1]; first compound 0.4 µM) | relative viability ([1]; first compound 1.265 µM) | relative viability ([1]; first compound 4 µM) | relative viability ([2]; first compound 0.04 µM) | relative viability ([2]; first compound 0.1265 µM) | relative viability ([2]; first compound 0.4 µM) | relative viability ([2]; first compound 4 µM) | relative viability (Mirin + Navitoclax; first compound 0.25 µM) | relative viability (Mirin + Navitoclax; first compound 0.7906 µM) | relative viability (Mirin + Navitoclax; first compound 2.5 µM) | relative viability (Mirin + Navitoclax; first compound 7.906 µM) | relative viability (Mirin + Navitoclax; first compound 25 µM) | relative viability (Mirin + Linsitinib; first compound 0.25 µM) | relative viability (Mirin + Linsitinib; first compound 0.7906 µM) | relative viability (Mirin + Linsitinib; first compound 2.5 µM) | relative viability (Mirin + Linsitinib; first compound 7.906 µM) | relative viability (Mirin + Linsitinib; first compound 25 µM) | relative viability ([2]; first compound 1.265 µM)
1 | NCI-H1793 | 0.248 | 0.294 | 0.29 | 0.269 | 0.279 | 0.329 | 0.304 | 0.428 | 0.328 | 0.55 | 0.36 | 0.395 | 0.656 | 0.371 | 0.816 | 0.794 | 0.902 | 0.947 | 0.641 | 
2 | NCI-H3122 | 0.176 | 0.226 | 0.207 | 0.172 | 0.172 | 0.69 | 0.578 | 0.609 | 0.659 | 1.01 | 1.1 | 1.01 | 1.09 | 1.15 | 0.994 | 1.04 | 1.06 | 1.15 | 1.05 | 0.665
3 | NCI-H520 | 0.255 | 0.233 | 0.194 | 0.174 | 0.2 | 0.326 | 0.28 | 0.238 | 0.279 | 1.03 | 1.11 | 1.35 | 0.829 | 0.676 | 0.969 | 0.921 | 0.946 | 0.803 | 0.638 | 0.255
4 | NCI-H1755 | 0.475 | 0.478 | 0.45 | 0.437 | 0.49 | 0.384 | 0.377 | 0.372 | 0.371 | 1.03 | 1.11 | 1.03 | 1.09 | 1.14 | 1.03 | 1.12 | 1.01 | 1.06 | 1.1 | 0.19
5 | NCI-H1734 | 0.33 | 0.362 | 0.344 | 0.291 | 0.317 | 0.387 | 0.449 | 0.431 | 0.473 | 0.838 | 0.746 | 0.793 | 0.742 | 0.771 | 0.851 | 0.852 | 0.875 | 0.739 | 0.765 | 
6 | EPLC-272H | 0.338 | 0.302 | 0.324 | 0.318 | 0.327 | 0.305 | 0.285 | 0.287 | 0.284 | 1.08 |  | 1.09 | 0.965 | 0.808 | 1.1 |  | 1.16 | 0.978 | 0.831 | 0.302
7 | NCI-H2228 |  | 0.595 | 0.684 | 0.472 | 0.877 | 0.383 | 0.397 | 0.297 | 0.436 | 1.2 | 0.972 | 1.35 | 1.18 | 1.03 | 0.702 | 0.64 | 0.783 | 0.831 | 0.553 | 0.309
